Legend:
[1] = Vm value of the compound; type: ADME
[2] = tested on: NC(CCC(=O)NC(CSC(=O)N(O)c1ccccc1)C(=O)NCC(=O)O)C(=O)O; settings: Bos taurus
Description: Michaelis-Menten constant was tested for inhibitory activity against bovine liver glyoxalase II

## NC(CCC(=O)NC(CSC(=O)N(O)c1ccc(Cl)cc1)C(=O)NCC(=O)O)C(=O)O (centres undefined)
[1]
  Vm: 1.5e-05

## NC(CCC(=O)NC(CSC(=O)N(O)c1ccccc1)C(=O)NCC(=O)O)C(=O)O (centres undefined)
[1]
  Vm: 4.6e-06

## Hydroxyacylglutathione hydrolase, mitochondrial (Homo sapiens) (from UniProt Q16775)
[2]
  Km: 13 µM

## NC(CCC(=O)NC(CSC(=O)N(O)c1ccc(Br)cc1)C(=O)NCC(=O)O)C(=O)O (centres undefined)
[1]
  Vm: 2.1e-05

Source: ChEMBL document CHEMBL1127571, “S-(N-aryl-N-hydroxycarbamoyl)glutathione derivatives are tight-binding inhibitors of glyoxalase I and slow substrates for glyoxalase II” (J Med Chem, 1994)
